# Results from PubChem BioAssay AID2060899 (Molecular Pharmacology Branch, DTP, NCI, 2025).
# Test system: 565726-208-R1-J5-PDC complex spheroids, growth inhibition
# Assay: Anticancer human tumor 565726-208-R1-J5-PDC patient-derived pancreatic adenocarcinoma cell line growth inhibition [RAS]
# Settings: for IC50: curve of first compound; for viability, T/C: stronger effect = lower value
# Excerpt: RAS pathway inhibitors in Combinations in Complex Spheroids
# A high-throughput screen of multi-cell type tumor spheroids was designed to identify active combinations of RAS pathway inhibitors and targeted small molecules. Complex spheroids include a stromal component modeled by human endothelial cells (HUVEC) and fibroblasts modeled by human mesenchymal stem cells (MSCs). The concentration ranges selected for each drug and investigational agent were based upon clinically achievable concentrations if the clinical Cmax of the agent was known.
# Compounds. The drugs and investigational agents: abemaciclib (NSC768073), cobimetinib (NSC768068), divarasib (GDC6063, NSC841802), docetaxel (NSC628503), GDC-1971 (RLY-1971, NSC841576), gemcitabine (NSC613327), inavolisib (NSC800729), ipatasertib (NSC767898), KB-0742 (NSC834161), MRTX-1133 (NSC836407), osimertinib (NSC779217), RMC-4630 (NSC839698), RMC-6236 (NSC851965), RMC-6291 (NSC852671), Ro-3306 (NSC812927), sapanisertib (NSC764658), SN-38 (NSC673596), staurosporine (NSC755774), SY5609 (NSC837396), and tovorafenib (DAY101, NSC766906), were obtained from the National Cancer Institute (NCI) Developmental Therapeutics Program Chemical Repository. The FDA-approved anticancer drug set is available from the NCI Developmental Therapeutics Program. […] The stock solutions were prepared in dimethyl sulfoxide (DMSO, Sigma-Aldrich, St. Louis, MO, cat. D2650) at 800-fold the tested concentration and stored at -70 degrees C prior to their use. All drugs and investigational agents were tested over a range starting from a high concentration at or near the clinical Cmax and decreasing in half-log increments. If the clinical Cmax for an agent had not been determined, the highest concentration tested was 10 microM.
# Cell Culture. All cells were maintained in an incubator at 37 degrees C and 5% CO2 with 95% humidity. The PDC lines were cultured according to standard operating procedures established by the NCI PDMR. All PDCs were thawed and cultured in Matrigel-coated flasks prepared with a working solution of 1X Ham's F-12 nutrient mix, without supplementation (Invitrogen, Waltham, MA, cat. 11765054), 100 U/mL penicillin-streptomycin (Invitrogen, cat. 15140122), and 2.5% Matrigel (Corning Inc., Corning, NY, cat. 354248) for the first three passages. The 362531-283-R-J2-PDC and 782815-120-R-J1-PDC lines were cultured in 6C/Colon 1B media, which includes advanced DMEM/F-12 (Thermo Fisher Scientific, cat. 12634028), 10 mM HEPES (Thermo Fisher Scientific, cat. 15630080), 1X GlutaMAX supplement (Thermo Fisher Scientific, cat. 35050061), 0.1 mg/mL primocin (InvivoGen, San Diego, CA, cat. ant-pm-2), 10% defined fetal bovine serum, heat inactivated (HyClone Laboratories Inc., Logan, UT, cat. SH30070.03HI), 50% L-WRN conditioned media (ATCC, cat. CRL-3276), 1.25 mM N-Acetyl-L-cysteine (Sigma-Aldrich, cat. A9165), 10 mM nicotinamide (Sigma-Aldrich, cat. N0636), 1X B-27 supplement (Thermo Fisher Scientific, cat. 17504044), 1X N-2 supplement (Thermo Fisher Scientific, cat. 17502048), 50 ng/mL human EGF (Thermo Fisher Scientific, cat. PHG0311), and 10 microM Y-27632 dihydrochloride (Tocris Bioscience, cat. 1254). The K12877-001-R-J1-PDC line was cultured in 6I media, which includes all 6C/Colon 1B media plus 10 ng/mL human FGF-10 (PeproTech, cat. 100-26), 1 ng/mL human FGF-2 (PeproTech, cat. 100-18B), 1 µM prostaglandin E2 (Tocris Bioscience, cat. 2296), […] hydrocortisone (Sigma-Aldrich, cat. H4001), and […] bovine insulin (Sigma-Aldrich, cat. I6634). The K86415-001-R-J1-PDC line was cultured in 6D media, which includes all 6C/Colon 1B media components minus the L-WRN conditioned media. The 485176-168-R4-J1-PDC was cultured in PANC media, which includes all 6C/Colon 1B media plus 100 ng/mL human FGF-10 (PeproTech, cat. 100-26), 500 nM SB-431542 (Selleckchem, cat. S1067), and 10 nM gastrin (Tocris Bioscience, cat. 3006). […]
# 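Further: spheroids exposed to compounds for seven days before readout.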
# 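Wherever viability, T/C is given: 100% = DMSO vehicle control viability.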
compound,measurement,setting,value
C=CC(=O)Nc1cc(Nc2nccc(-c3cn(C)c4ccccc34)n2)c(OC)cc1N(C)CCN(C)C + CCn1c(-c2cc(N3CCN(C)CC3)cnc2C(C)OC)c2c3cc(ccc31)-c1csc(n1)CC(NC(=O)C1CC1C)C(=O)N1CCCC(N1)C(=O)OCC(C)(C)C2,IC50,second compound 0.000949 µM,185 nM
same,IC50,second compound 0.003 µM,11 nM
same,IC50,second compound 0.00949 µM,< 3.16 nM
same,IC50,second compound 0.03 µM,< 3.16 nM
same,IC50,second compound 0.0949 µM,< 3.16 nM
same,IC50,second compound 0.3 µM,< 3.16 nM
same,"viability, T/C","second compound 0.000949 µM, first compound 0.00316 µM",63.2%
same,"viability, T/C","second compound 0.000949 µM, first compound 0.01 µM",62.6%
same,"viability, T/C","second compound 0.000949 µM, first compound 0.0316 µM",59.9%
same,"viability, T/C","second compound 0.000949 µM, first compound 0.1 µM",56.4%
same,"viability, T/C","second compound 0.000949 µM, first compound 0.316 µM",44.6%
same,"viability, T/C","second compound 0.000949 µM, first compound 1 µM",34.3%
same,"viability, T/C","second compound 0.003 µM, first compound 0.00316 µM",58.9%
same,"viability, T/C","second compound 0.003 µM, first compound 0.01 µM",44.3%
same,"viability, T/C","second compound 0.003 µM, first compound 0.0316 µM",49.2%
same,"viability, T/C","second compound 0.003 µM, first compound 0.1 µM",38.8%
same,"viability, T/C","second compound 0.003 µM, first compound 0.316 µM",36.1%
same,"viability, T/C","second compound 0.003 µM, first compound 1 µM",28.2%
same,"viability, T/C","second compound 0.00949 µM, first compound 0.00316 µM",43.2%
same,"viability, T/C","second compound 0.00949 µM, first compound 0.01 µM",38.3%
same,"viability, T/C","second compound 0.00949 µM, first compound 0.0316 µM",34.9%
same,"viability, T/C","second compound 0.00949 µM, first compound 0.1 µM",30.9%
same,"viability, T/C","second compound 0.00949 µM, first compound 0.316 µM",24.7%
same,"viability, T/C","second compound 0.00949 µM, first compound 1 µM",20.4%
same,"viability, T/C","second compound 0.03 µM, first compound 0.00316 µM",30.4%
same,"viability, T/C","second compound 0.03 µM, first compound 0.01 µM",30.1%
same,"viability, T/C","second compound 0.03 µM, first compound 0.0316 µM",29.6%
same,"viability, T/C","second compound 0.03 µM, first compound 0.1 µM",25.1%
same,"viability, T/C","second compound 0.03 µM, first compound 0.316 µM",19%
same,"viability, T/C","second compound 0.03 µM, first compound 1 µM",15.5%
same,"viability, T/C","second compound 0.0949 µM, first compound 0.00316 µM",28.3%
same,"viability, T/C","second compound 0.0949 µM, first compound 0.01 µM",24.6%
same,"viability, T/C","second compound 0.0949 µM, first compound 0.0316 µM",21.4%
same,"viability, T/C","second compound 0.0949 µM, first compound 0.1 µM",18.2%
same,"viability, T/C","second compound 0.0949 µM, first compound 0.316 µM",16.4%
same,"viability, T/C","second compound 0.0949 µM, first compound 1 µM",14.7%
same,"viability, T/C","second compound 0.3 µM, first compound 0.00316 µM",23.4%
same,"viability, T/C","second compound 0.3 µM, first compound 0.01 µM",21.2%
same,"viability, T/C","second compound 0.3 µM, first compound 0.0316 µM",18.8%
same,"viability, T/C","second compound 0.3 µM, first compound 0.1 µM",16.3%
same,"viability, T/C","second compound 0.3 µM, first compound 0.316 µM",15.5%
same,"viability, T/C","second compound 0.3 µM, first compound 1 µM",11.6%
